# According to patent US10155802B2, “Locally-active anticoagulants and anti-inflammatory agents” (priority 2011, dated 2018):
# Read-outs that look alike come from different tables or passages of the source. No end group written: not given here.
# Columns and labels:
# pooled human plasma [1] = assay: Activated partial thromboplastin time (APTT) clotting assay; format: biochemical; details: 37° C.; concentration for 50% of maximum delay in clotting time; read-out: MTC50 (APTT)
# Protocol: (§1) Prothrombin (clotting) time (PT) or activated partial thromboplastin (clotting) time (APTT) assays were carried out at certain concentrations of the thrombin inhibitors of the present invention using pooled human plasma with addition of thromboplastin or activated partial thromboplastin to initiate clotting. The assays employed kits from Biopool International (Ventura, Calif., USA) or from Pacific Haemostasis (Middletown, Va., USA) using the procedures supplied by the manufacturer. Briefly, the stock solution of an inhibitor (with the concentration determined using UV-based OD determination, see Gill 1989) is diluted in a buffer of 20 mM HEPES and 150 mM NaCl at pH 7.4 (HBS) to a final volume of 50 μL, to which is added the reconstituted normal plasma (Product #CMS-176172 from Fisher Scientific) in an equal volume. This solution mixture is equilibrated at 37° C. for 2 minutes before 50 μL of the APTT-10XL solution (CMS-022927) is introduced forcibly to ensure proper mixing. This new mixture was incubated at 37° C. for another 5 minutes, which is followed by the addition of 50 μL of 0.02 M […] (Fisher Scientific CMS-022925) pre-warmed at 37° C. For the prothrombin time (PT) assay, an inhibitor is diluted in HBS to a final volume of 25 μL, to which is added the reconstituted control plasma (Fisher Scientific CMS-176172) in an equal volume. This solution mixture is equilibrated at 37° C. for 5 minutes before addition of 100 μL of the thromboplastin solution (CMS-176099) pre-warmed at 37° C. For APTT assays, inhibitory activities of the peptides are expressed as concentrations needed to achieve 50% of the maximum delay in clotting time (MCT50) as compared to the absence of thrombin inhibitors (Maraganore 1989). For PT assays, inhibitory activities are measured as the concentrations of the peptides that prolong the clotting time by 50% (IC50) of that of the normal control plasma (Maraganore 1990). PT and APTT assays were also carried out using slightly modified experimental procedures. Thus, 50 μL of a control plasma (Pacific Hemostasis) solution was added to 100 μL HBS (20 mM HEPES and 150 mM NaCl at pH 7.4) containing varied concentrations of the peptides of this invention. After incubation at 37° C. for 5 min, the mixture was added to 50 μL of the thromboplastin or activated partial thromboplastin reagent. Clotting of the plasma was monitored by change in absorbance at 420 nm using a SpectraMax™ plate reader.
# [2] = tested on: FeCl3-induced venous thrombosis (vena cava); assay: FeCl3-induced venous model of thrombosis in rats (thrombus weight); format: in vivo; details: rat, single-bolus injection via tail vein
# Protocol: Male Sprague-Dawley rats (250-310 g; Charles River Laboratories, St-Constant, QC, Canada) were acclimated for at least 3 days prior to the start of the study. Animals were housed in microisolator cages and were kept on a 12-hr light/dark cycle with constant temperature and humidity. Food and water were provided ad libitum. Various anti-thrombotic agents and peptides of this invention were dissolved in saline (0.9% sodium chloride) prior to use.
# The FeCl3-induced venous model of thrombosis in rats was generated as described by Wang and Xu (Wang 2005) with some modifications (Couture 2011). Briefly, rats were anesthetized with a 2.5% isoflurane/oxygen mixture and placed on a heat source (35-37° C.). The vena cava was then exposed via a midline incision and the region between the renal and iliolumbar veins was isolated. […]
# Protein content of the thrombus was also measured according to protocol by Wang (Wang 2005). […] Contents of amino acids and small peptides were measured at OD280 with digestion buffer used as a blank.
# Statistical analysis was conducted using GraphPad™ Prism (GraphPad Software Inc., San Diego Calif., USA). Data were analyzed using one-way ANOVA with post-hoc Bonferroni correction for multiple comparisons. The relationship between thrombus weight and thrombus volume was determined by linear regression. […]
# pooled human plasma [3] = assay: Prothrombin time (PT, thromboplastin) clotting assay; format: biochemical
# Protocol: as §1
# [4] = tested on: fresh blood withdrawn from rats with venous thrombosis; assay: Clotting time (aPTT) of fresh blood withdrawn from treated rats; format: in vivo; details: rat, 0.2 mg/kg bolus + 0.00433 mg/kg/min infusion; 20 minutes after administration versus before
# Protocol: FIG. 23 illustrates the clotting times (aPTT) determined for fresh blood withdrawn from rats with venous thrombosis at three time points, the first before drug administration and vessel injury, the second at 20 minutes after FeCl3 application and the third 60 minutes following injection of the respective thrombin inhibitors. Clotting times (aPTT) are shown for different rats administered with each thrombin inhibitor, ZIP4 for MH2-wZIP4, ZIP5 for MH2-wZIP5 and T218 for BRI-T218. Dosage levels for every compound were 0.2 mg/kg for the single-bolus injection and 0.00433 mg/kg/min for the maintenance infusion,
# Terminal blood samples were analyzed for aPTT within 15 to 30 minutes of collection using a Coag DX Analyzer with aPTT citrate cartridges (IDEXX Laboratories, Westbrook, Me., USA).
# thrombin = thrombin (Homo sapiens, UniProt P00734); assay: Fibrinogen clotting assay (concentration needed to double the clotting time = IC50); format: biochemical; details: IC50 (anti-clotting), T = 37° C.
# Protocol: The same enzyme kinetic assays were used to determine the inhibitory activities of MH2 and two MH2-derived peptides, MH2-allGS and MH2-GS (Table 4). Clotting assays were carried out to determine the inhibitory activities of the rest of the MH2 peptides by use of the protocols described previously (DiMaio 1990; Taka 2000; Su 2004). The assay employs bovine plasma fibrinogen dissolved at 0.1% in 50 mM Tris-Cl, 100 mM NaCl, 0.1% PEG-8000 at pH 7.6 (i.e. the clotting buffer). In addition to the use of optical densities or ODs (Gill 1989), concentrations of the peptide stock solutions were ranked (and corrected when necessary) by use of quantitative proton NMR spectroscopy (Cavaluzzi 2002). Each assay mixture contained a certain concentration of the peptide, and the reaction was started by the addition of human thrombin to a final concentration of approximately 0.5 nM. Optical absorbance of the assay mixtures was measured at 420 nm using the Spectramax™ plate reader. The onset clotting time was determined as an intersection of the baseline and the tangent line at point of inflection of the clotting curve. The concentration of an MH2 peptide needed to double the clotting time was defined as IC50 (DiMaio 1990) as illustrated in FIG. 4 and summarized in Table 4. The correlation between IC50 values and linker unfolding is similar to that for the BTI series of inhibitors (Table 3). […] (Table 3).
# rat-tail collagen type I = molecular target: T1, rat-tail collagen type I (Rattus norvegicus, UniProt P02454+P02466); assay: Peptide-collagen binding by reduction of collagen fibril alignment (deuterium coupling constant); details: collagen gelation under magnetic field in presence of peptide
# T1 construct: purchased BD Bioscience; host or cells: rat tail (tissue-derived)
# T1 sequence (P02454 152-1207): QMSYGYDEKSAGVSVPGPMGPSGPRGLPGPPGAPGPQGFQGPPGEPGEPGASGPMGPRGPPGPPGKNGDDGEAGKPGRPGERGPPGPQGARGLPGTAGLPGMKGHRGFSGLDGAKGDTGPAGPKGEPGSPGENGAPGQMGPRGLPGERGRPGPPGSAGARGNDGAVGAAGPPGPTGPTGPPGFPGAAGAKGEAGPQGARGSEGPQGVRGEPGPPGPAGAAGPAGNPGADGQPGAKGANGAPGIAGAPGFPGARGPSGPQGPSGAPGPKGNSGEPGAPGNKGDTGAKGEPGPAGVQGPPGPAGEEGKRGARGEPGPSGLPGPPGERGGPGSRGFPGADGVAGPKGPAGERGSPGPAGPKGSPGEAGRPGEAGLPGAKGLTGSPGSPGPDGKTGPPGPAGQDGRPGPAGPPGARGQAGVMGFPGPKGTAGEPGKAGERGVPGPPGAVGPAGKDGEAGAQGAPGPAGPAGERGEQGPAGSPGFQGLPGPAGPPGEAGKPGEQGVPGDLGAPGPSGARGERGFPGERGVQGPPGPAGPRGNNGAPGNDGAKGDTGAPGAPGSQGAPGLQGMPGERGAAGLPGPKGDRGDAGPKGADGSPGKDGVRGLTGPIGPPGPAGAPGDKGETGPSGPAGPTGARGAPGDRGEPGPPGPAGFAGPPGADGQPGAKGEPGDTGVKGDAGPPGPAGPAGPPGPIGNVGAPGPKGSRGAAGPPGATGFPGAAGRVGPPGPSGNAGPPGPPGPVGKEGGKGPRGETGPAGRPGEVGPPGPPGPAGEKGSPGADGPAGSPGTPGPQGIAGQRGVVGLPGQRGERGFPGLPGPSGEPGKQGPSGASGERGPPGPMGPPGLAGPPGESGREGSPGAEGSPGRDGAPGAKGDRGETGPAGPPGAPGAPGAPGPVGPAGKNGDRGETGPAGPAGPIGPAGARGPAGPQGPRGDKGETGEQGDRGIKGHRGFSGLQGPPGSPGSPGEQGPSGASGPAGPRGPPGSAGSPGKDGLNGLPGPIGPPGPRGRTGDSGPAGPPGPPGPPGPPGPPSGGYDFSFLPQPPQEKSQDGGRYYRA
# T1 sequence (P02466 86-1125): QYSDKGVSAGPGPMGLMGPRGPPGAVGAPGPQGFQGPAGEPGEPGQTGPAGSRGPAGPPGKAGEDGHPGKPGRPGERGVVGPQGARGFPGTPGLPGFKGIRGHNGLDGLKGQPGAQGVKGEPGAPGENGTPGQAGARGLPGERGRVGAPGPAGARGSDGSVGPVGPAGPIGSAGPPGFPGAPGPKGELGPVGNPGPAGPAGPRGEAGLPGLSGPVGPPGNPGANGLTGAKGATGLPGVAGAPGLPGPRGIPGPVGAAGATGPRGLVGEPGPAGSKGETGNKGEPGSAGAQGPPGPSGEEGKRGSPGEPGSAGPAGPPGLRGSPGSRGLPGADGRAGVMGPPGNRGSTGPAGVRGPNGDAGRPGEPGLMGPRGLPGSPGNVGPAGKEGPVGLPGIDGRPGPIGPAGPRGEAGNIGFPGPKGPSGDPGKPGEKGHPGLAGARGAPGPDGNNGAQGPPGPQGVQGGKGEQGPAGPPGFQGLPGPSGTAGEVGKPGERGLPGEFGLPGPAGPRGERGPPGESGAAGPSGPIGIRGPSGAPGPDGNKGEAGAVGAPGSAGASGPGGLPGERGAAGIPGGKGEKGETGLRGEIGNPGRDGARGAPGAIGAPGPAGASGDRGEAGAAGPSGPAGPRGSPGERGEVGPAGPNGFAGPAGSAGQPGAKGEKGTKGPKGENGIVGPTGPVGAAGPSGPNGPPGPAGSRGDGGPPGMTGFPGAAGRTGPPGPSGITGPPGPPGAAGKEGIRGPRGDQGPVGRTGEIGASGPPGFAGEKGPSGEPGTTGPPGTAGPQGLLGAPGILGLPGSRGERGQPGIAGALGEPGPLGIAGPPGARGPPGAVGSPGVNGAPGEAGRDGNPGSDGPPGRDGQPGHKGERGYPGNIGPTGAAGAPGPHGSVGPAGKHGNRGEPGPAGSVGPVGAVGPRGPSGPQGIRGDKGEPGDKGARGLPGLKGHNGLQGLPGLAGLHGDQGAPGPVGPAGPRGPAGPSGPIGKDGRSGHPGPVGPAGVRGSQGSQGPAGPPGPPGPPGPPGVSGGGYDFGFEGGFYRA
# Text: High-resolution proton NMR spectroscopy is used to illustrate the behavior of the linker peptides […] (SEQ ID NO: 2 or gb1), […] (SEQ ID NO: 3 or trpzip6), […] (SEQ ID NO: 4 or trpzip5) and […] (SEQ ID NO: 5 or trpzip4) in aqueous solutions. The peptides were synthesized using standard Fmoc chemistry and purified by reverse-phase HPLC. Their identity was confirmed by mass-spectroscopy and NMR spectroscopy. For NMR studies, a volume of (400-X) μL of a peptide dissolved in pure water was mixed with 50 μL of a 10×PBS (phosphate-buffered saline) supplemented by sodium phosphate to a final concentration of 50 mM and with 50 μL of deuterated water (D2O) to form the reference sample (where X=0) and with a certain volume (X μL) of rat-tail collagen type I (at 3.6 to 4 mg/ml in 0.02 N acetic acid from BD Bioscience), (where X is adjusted to achieve the desired final concentration of collagen), with 50 μL of the 10× modified PBS and with 50 μL of deuterated water (D2O) to form the peptide-collagen complex. The pH value of the reference peptide samples was adjusted to match the pH of the final peptide-collagen complex in order to facilitate NMR spectral comparison.
# The peptide-collagen solutions were subjected to gelation under magnetic field guidance (see Example 7) followed by the measurement of fibril alignment (Ma 2008) as a semi-quantitative indication of peptide-collagen binding. […]
# [5] = estimated (Cochran 2001), cited from earlier work
Compound,EC50 (pooled human plasma [1]) [µM],"reduction of thrombus weight, venous model [2]",concentrations required in PT-APTT curves relative to MH2-GS (pooled human plasma [3]),"IC50 (pooled human plasma [3]; 37° C., concentration that prolongs clotting time by 50%) [µM]","clotting time (aPTT), systemic anticoagulant effect [4]",IC50 (thrombin) [µM],reduction of deuterium coupling constant (degree of collagen fibril alignment) (rat-tail collagen type I),"population of unfolded species, non-zero ΔCp taken into account ([5]; 21° C.)","population of unfolded species, non-zero ΔCp taken into account ([5]; 37° C.)"
CC[C@H](C)[C@H](N)C(=O)N[C@@H](CCCNC(=N)N)C(=O)N[C@@H](Cc1ccccc1)C(=O)N[C@H](C(=O)N[C@@H](CC(=O)O)C(=O)NCC(=O)N[C@@H](CCC(=O)O)C(=O)N[C@@H](Cc1c[nH]c2ccccc12)C(=O)N[C@H](C(=O)N[C@@H](Cc1ccc(O)cc1)C(=O)N[C@@H](CC(=O)O)C(=O)N[C@@H](CC(=O)O)C(=O)N[C@@H](C)C(=O)N[C@H](C(=O)N[C@@H](CCCCN)C(=O)N[C@H](C(=O)N[C@@H](Cc1ccccc1)C(=O)N[C@H](C(=O)N[C@@H](Cc1c[nH]c2ccccc12)C(=O)N[C@H](C(=O)N[C@@H](CCC(=O)O)C(=O)NCC(=O)N[C@@H](CC(=O)O)C(=O)N[C@@H](Cc1ccccc1)C(=O)N[C@@H](CCC(=O)O)C(=O)N[C@@H](CCC(=O)O)C(=O)N[C@H](C(=O)N1CCC[C@H]1C(=O)N[C@@H](CCC(=O)O)C(=O)N[C@@H](CCC(=O)O)C(=O)N[C@@H](Cc1ccc(O)cc1)C(=O)N[C@@H](CC(C)C)C(=O)N[C@@H](CCC(N)=O)C(=O)O)[C@@H](C)CC)[C@@H](C)O)[C@@H](C)O)[C@@H](C)O)[C@@H](C)O)[C@@H](C)O)[C@@H](C)O [MH2-wZIP5],2,comparable to MH2-wZIP4,about 2.5 times,< 0.3,only a slight prolongation of the clotting time (aPTT),0.107,,,
GEWTYDDATKTFTVTE (not fully specified (C-terminus)) [gb1],,,,,,,not significantly affected,0.7,0.85
